Test results from patent publication US20090130098A1, “Specific therapy using integrin ligands for treating cancer” (Merck Patent GmbH, priority 2006, published 2009).

How the values were obtained:
[1] = tested on: recurrent glioblastoma (GBM); assay: Phase IIa trial of cilengitide single agent therapy in recurrent glioblastoma; assay type: in vivo, human
Experimental: Background: The present phase IIa study was designed to evaluate the safety, toxicity, and clinical activity of the cyclic RGD pentapeptide cilengitide ((=cyclo-(Arg-Gly-Asp-DPhe-NMe-Val)), an inhibitor of integrins αvβ3 and αvβ5, as a single agent at doses of 500 and 2000 mg in patients (pts) with recurrent glioblastoma (GBM).
Methods: In this multicenter, open-label, randomized, uncontrolled study, pts with GBM and measurable disease that had relapsed after previous therapy with temozolomide and radiotherapy were randomized to receive cilengitide at doses of either 500 mg or 2000 mg i.v., 2×/week, until progression. Histopathology diagnosis and MRI imaging were subject to independent blinded review. The primary endpoint was Progression Free Survival (PFS) at 6 months (mths). Secondary endpoints included response, survival, time to disease progression, safety, tolerability and pharmacokinetics.

[2] = tested on: newly diagnosed glioblastoma (GBM); assay: Phase I/IIa trial of cilengitide with temozolomide and radiotherapy in newly diagnosed glioblastoma; assay type: in vivo, human; details: cilengitide 500 mg + TMZ/RT
Experimental: Purpose: To evaluate safety, toxicity, and efficacy of the combination of the cyclic RGD pentapeptide Cilengitide (=cyclo-(Arg-Gly-Asp-DPhe-NMe-Val)), an inhibitor of integrins αvβ3 and αvβ5, in addition to standard temozolomide (TMZ) and radiotherapy (RT).
Patients and methods: Fifty-two pts (PS 0-1: 92%, 2: 8%; median age 57 yrs) after biopsy (n= 9/17%) or tumor resection (n= 43/83%) were treated with standard TMZ/RT (Stupp et al. NEJM 2005). In addition Cilengitide (500 mg i.v., 2×/week) was started one week before TMZ/RT and given throughout for the duration of chemotherapy or until progression. Primary endpoint was progression free survival rate at 6 months (target: 65%). Patients were followed with MRI every 2 months. Histopathologic diagnosis and MRI imaging were independently reviewed, MGMT promotor methylation status was assessed in 45 (86.5%) pts.

various brain tumors = details: human, in vivo; cited from earlier work

Q: Which results are given for `CC(C)[C@H]1C(=O)N[C@@H](CCCN=C(N)N)C(=O)NCC(=O)N[C@@H](CC(=O)O)C(=O)N[C@H](Cc2ccccc2)C(=O)N1C` [cilengitide, cyclo-(Arg-Gly-Asp-DPhe-NMeVal)]?
A: pts who received 12 or more cycles of therapy ([1]; 500 mg): 4 pts; pts who received 12 or more cycles of therapy ([1]; 2000 mg): 6 pts; tumor control, 2000 mg vs 500 mg ([1]; 2000 mg 2x/week, not statistically significant): trend towards better tumor control; Treatment related NCI CTC grade 3 AE: arthralgia/myalgia ([1]; at 500 mg): 1 patient; Treatment related NCI CTC grade 3 AE: elevated liver enzymes ([1]; at 500 mg): 1 patient; Treatment related NCI CTC grade 3 AE: weight increase/edema ([1]; at 2000 mg): 1 patient; single agent activity in recurrent glioblastoma ([1]; in vivo): advantageous single agent activity; non-hematologic grade 3: constitutional symptoms (asthenia, fatigue, anorexia) [2]: 3 n; non-hematologic grade 3: deep venous thrombosis and pulmonary embolism [2]: 1 n; non-hematologic grade 3: elevated liver function tests [2]: 1 n; sigmoid perforation (grade 2) ([2]; patient with history of sigmoid diverticulosis): One patient; MTD (various brain tumors): no known MTD
